Measured values: publication PMC6001238, “Iterative Chemical Engineering of Vancomycin Leads to Novel Vancomycin Analogs With a High in Vitro Therapeutic Index” (Frontiers in Microbiology, 2018)
Values after ≈ are worked out from the molar mass of the structure shown.

Key:
[1] = tested on: L1210, CEM and HeLa cell lines; experiment: Cytostatic activity, average or summary over L1210, CEM and HeLa; format: cell-based; details: average of L1210, CEM and HeLa; read-out: Toxicity (IC50) Average
In short: (§1)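 Test compounds, serially diluted, received an equal volume of cell suspension at 300,000–500,000 cells/mL. After 37°C incubation (2 days for L1210, 3 for CEM, 4 for HeLa), cells were enumerated by Coulter counting and 50%-inhibitory concentrations calculated per cell type.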

E. faecalis VRE 37 = experiment: MIC, broth microdilution, vancomycin-resistant E. faecalis VRE 37 (VanA); format: cell-based, Enterococcus faecalis; details: for MIC: Enterococcus faecalis VRE 37 (vancomycin-resistant), read-out: MIC; for MIC-fold improvement vs. vancomycin: VRE 37, ratio of MIC of vancomycin and MIC of analogue
In short: (§2)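 Controls (ultrapure water; broth not inoculated) were included throughout CLSI-compliant broth microdilution. One condition supplemented analogue or comparator with 10 μM vancomycin, final level.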

MRSA KS2 = experiment: MIC, broth microdilution, MRSA KS2; format: cell-based, Staphylococcus aureus; details: for MIC-fold improvement vs. vancomycin: MRSA KS2, ratio of MIC of vancomycin and MIC of analogue; for MIC: Staphylococcus aureus MRSA KS2, read-out: MIC
In short: as §2

E. faecalis VRE 6 = experiment: MIC, broth microdilution, vancomycin-resistant E. faecalis VRE 6 (VanA); format: cell-based, Enterococcus faecalis; details: for MIC: Enterococcus faecalis VRE 6 (vancomycin-resistant), read-out: MIC; for MIC-fold improvement vs. vancomycin: VRE 6, ratio of MIC of vancomycin and MIC of analogue
In short: as §2

[2] = tested on: human cervix carcinoma (HeLa) cells; experiment: Cytostatic activity, HeLa cell proliferation; format: cell-based; details: mean ± SD of three experiments; highest concentration tested 250 µM; 4 days; read-out: Toxicity (IC50) HeLa
In short: as §1

E. faecalis VRE 53 = experiment: MIC, broth microdilution, vancomycin-resistant E. faecalis VRE 53 (VanA); format: cell-based, Enterococcus faecalis; details: for MIC: Enterococcus faecalis VRE 53 (vancomycin-resistant), read-out: MIC; for MIC-fold improvement vs. vancomycin: VRE 53, ratio of MIC of vancomycin and MIC of analogue
In short: as §2

S. aureus VISA/HIP5827 = experiment: MIC, broth microdilution, vancomycin-intermediate S. aureus VISA HIP5827; format: cell-based, Staphylococcus aureus; details: for MIC: Staphylococcus aureus VISA/HIP5827, read-out: MIC; for MIC-fold improvement vs. vancomycin: VISA/HIP5827, ratio of MIC of vancomycin and MIC of analogue
In short: as §2

[3] = tested on: human T-lymphocyte (CEM) cells; experiment: Cytostatic activity, CEM cell proliferation; format: cell-based; details: mean ± SD of three experiments; highest concentration tested 250 µM; 3 days; read-out: Toxicity (IC50) CEM
In short: as §1

E. faecalis VRE 29 = experiment: MIC, broth microdilution, vancomycin-resistant E. faecalis VRE 29 (VanA); format: cell-based, Enterococcus faecalis; details: for MIC: Enterococcus faecalis VRE 29 (vancomycin-resistant), read-out: MIC; for MIC-fold improvement vs. vancomycin: VRE 29, ratio of MIC of vancomycin and MIC of analogue
In short: as §2

E. faecalis VSE 1 = experiment: MIC, broth microdilution, vancomycin-sensitive E. faecalis (VSE 1); format: cell-based, Enterococcus faecalis; details: for MIC: Enterococcus faecalis VSE 1 (vancomycin-sensitive), read-out: MIC; for MIC-fold improvement vs. vancomycin: VSE 1, ratio of MIC of vancomycin and MIC of analogue
In short: as §2

MRSA KS6 = experiment: MIC, broth microdilution, MRSA KS6; format: cell-based, Staphylococcus aureus; details: for MIC-fold improvement vs. vancomycin: MRSA KS6, ratio of MIC of vancomycin and MIC of analogue; for MIC: Staphylococcus aureus MRSA KS6, read-out: MIC
In short: as §2

MRSA KS89 = experiment: MIC, broth microdilution, MRSA KS89; format: cell-based, Staphylococcus aureus; details: for MIC-fold improvement vs. vancomycin: MRSA KS8, ratio of MIC of vancomycin and MIC of analogue; for MIC: Staphylococcus aureus MRSA KS8, read-out: MIC
In short: as §2

[4] = tested on: Murine leukemia (L1210) cells; experiment: Cytostatic activity, L1210 cell proliferation; format: cell-based; details: mean ± SD of three experiments; highest concentration tested 250 µM; 2 days; read-out: Toxicity (IC50) L1210
In short: as §1

[5] = tested on: S. aureus VSSA (ATCC 6538); experiment: MIC, broth microdilution, vancomycin-sensitive S. aureus (VSSA/MSSA, ATCC 6538); format: cell-based, Staphylococcus aureus; details: for MIC: Staphylococcus aureus VSSA, read-out: MIC; for MIC-fold improvement vs. vancomycin: VSSA, ratio of MIC of vancomycin and MIC of analogue
In short: as §2

S. aureus VRSA = experiment: MIC, broth microdilution, vancomycin-resistant S. aureus (VRSA); format: cell-based, Staphylococcus aureus; details: for MIC: Staphylococcus aureus VRSA, read-out: MIC; for MIC-fold improvement vs. vancomycin: VRSA, ratio of MIC of vancomycin and MIC of analogue
In short: as §2

MRSA KS1 = experiment: MIC, broth microdilution, MRSA KS1; format: cell-based, Staphylococcus aureus; details: for MIC-fold improvement vs. vancomycin: MRSA KS1, ratio of MIC of vancomycin and MIC of analogue; for MIC: Staphylococcus aureus MRSA KS1, read-out: MIC
In short: as §2

SMILES | IC50 [1] [µM] | MIC (E. faecalis VRE 37) [µM] | MIC-fold improvement vs. vancomycin (MRSA KS2) | MIC (MRSA KS2) [µM] | MIC (E. faecalis VRE 6) [µM] | MIC-fold improvement vs. vancomycin (E. faecalis VRE 6) | IC50 [2] [µM] | MIC (E. faecalis VRE 53) [µM] | MIC-fold improvement vs. vancomycin (E. faecalis VRE 53) | MIC (S. aureus VISA/HIP5827) [µM] | MIC-fold improvement vs. vancomycin (S. aureus VISA/HIP5827) | IC50 [3] [µM] | MIC (E. faecalis VRE 29) [µM] | MIC-fold improvement vs. vancomycin (E. faecalis VRE 29) | MIC (E. faecalis VSE 1) [µM] | MIC-fold improvement vs. vancomycin (E. faecalis VSE 1) | MIC-fold improvement vs. vancomycin (MRSA KS6) | MIC (MRSA KS6) [µM] | MIC-fold improvement vs. vancomycin (MRSA KS89) | MIC (MRSA KS89) [µM] | also measured
CCCCCc1ccc(C(=O)NCCCNC(=O)C2NC(=O)C3NC(=O)C(NC(=O)C4NC(=O)C(CC(N)=O)NC(=O)C(NC(=O)C(CC(C)C)NC)C(O)c5ccc(c(Cl)c5)Oc5cc4cc(c5OC4OC(CO)C(O)C(O)C4OC4CC(C)(N)C(O)C(C)O4)Oc4ccc(cc4Cl)C3O)c3ccc(O)c(c3)-c3c(O)cc(O)cc32)cc1 (stereo not drawn) [Vanc-49] | 66 | 6.25 (≈ 10.5 µg/mL) | 4 | 0.20 (≈ 0.336 µg/mL) | 6.25 (≈ 10.5 µg/mL) | 32 | 99 ± 1 | 6.25 (≈ 10.5 µg/mL) | 64 | 0.39 (≈ 0.655 µg/mL) | 16 | 36 ± 8 | 6.25 (≈ 10.5 µg/mL) | 64 | 0.39 (≈ 0.655 µg/mL) | 4 | 4 | 0.20 (≈ 0.336 µg/mL) | 4 | 0.20 (≈ 0.336 µg/mL) | MIC-fold improvement vs. vancomycin (E. faecalis VRE 37): 64; IC50 [4]: 63 ± 8 µM; MIC [5]: 0.20 µM (≈ 0.336 µg/mL); MIC-fold improvement vs. vancomycin [5]: 4; MIC (S. aureus VRSA): 0.39 µM (≈ 0.655 µg/mL); MIC-fold improvement vs. vancomycin (S. aureus VRSA): 256; MIC-fold improvement vs. vancomycin (MRSA KS1): >8; MIC (MRSA KS1): <0.10 µM
CCCCOc1ccc(C(=O)NCCCNC(=O)C2NC(=O)C3NC(=O)C(NC(=O)C4NC(=O)C(CC(N)=O)NC(=O)C(NC(=O)C(CC(C)C)NC)C(O)c5ccc(c(Cl)c5)Oc5cc4cc(c5OC4OC(CO)C(O)C(O)C4OC4CC(C)(N)C(O)C(C)O4)Oc4ccc(cc4Cl)C3O)c3ccc(O)c(c3)-c3c(O)cc(O)cc32)cc1 (stereo not drawn) [Vanc-50] | 144 | 12.5 (≈ 21 µg/mL) | 4 | 0.20 (≈ 0.336 µg/mL) | 6.25 (≈ 10.5 µg/mL) | 32 | 96 ± 4 | 12.5 (≈ 21 µg/mL) | 32 | 0.78 (≈ 1.31 µg/mL) | 8 | 86 ± 2 | 12.5 (≈ 21 µg/mL) | 32 | 0.39 (≈ 0.656 µg/mL) | 4 | 2 | 0.39 (≈ 0.656 µg/mL) | 2 | 0.39 (≈ 0.656 µg/mL) | IC50 [4]: > 250 µM; MIC [5]: 0.39 µM (≈ 0.656 µg/mL); MIC-fold improvement vs. vancomycin [5]: 2; MIC (S. aureus VRSA): 0.78 µM (≈ 1.31 µg/mL); MIC-fold improvement vs. vancomycin (S. aureus VRSA): 128; MIC-fold improvement vs. vancomycin (MRSA KS1): 4; MIC (MRSA KS1): 0.20 µM (≈ 0.336 µg/mL)
CN[C@H](CC(C)C)C(=O)N[C@H]1C(=O)N[C@@H](CC(N)=O)C(=O)N[C@H]2C(=O)N[C@H]3C(=O)N[C@H](C(=O)N[C@H](C(=O)NCCNC(=O)/C=C/c4ccc(Cl)cc4Cl)c4cc(O)cc(O)c4-c4cc3ccc4O)[C@H](O)c3ccc(c(Cl)c3)Oc3cc2cc(c3O[C@@H]2O[C@H](CO)[C@@H](O)[C@H](O)[C@H]2O[C@H]2C[C@](C)(N)[C@H](O)[C@H](C)O2)Oc2ccc(cc2Cl)[C@H]1O [Vanc-51] | 89 | 12.5 (≈ 21.1 µg/mL) | 4 | 0.20 (≈ 0.338 µg/mL) | 6.25 (≈ 10.6 µg/mL) | 32 | 106 ± 21 | 12.5 (≈ 21.1 µg/mL) | 32 | 0.78 (≈ 1.32 µg/mL) | 8 | 82 ± 21 | 12.5 (≈ 21.1 µg/mL) | 32 | 0.39 (≈ 0.659 µg/mL) | 4 | 4 | 0.20 (≈ 0.338 µg/mL) | 4 | 0.20 (≈ 0.338 µg/mL) | IC50 [4]: 80 ± 13 µM; MIC [5]: 0.39 µM (≈ 0.659 µg/mL); MIC-fold improvement vs. vancomycin [5]: 2; MIC (S. aureus VRSA): 0.39 µM (≈ 0.659 µg/mL); MIC-fold improvement vs. vancomycin (S. aureus VRSA): 256; MIC-fold improvement vs. vancomycin (MRSA KS1): 4; MIC (MRSA KS1): 0.20 µM (≈ 0.338 µg/mL)
CNC(CC(C)C)C(=O)NC1C(=O)NC(CC(N)=O)C(=O)NC2C(=O)NC3C(=O)NC(C(=O)NC(C(=O)NCCCNC(=O)c4nc5ccccc5[nH]4)c4cc(O)cc(O)c4-c4cc3ccc4O)C(O)c3ccc(c(Cl)c3)Oc3cc2cc(c3OC2OC(CO)C(O)C(O)C2OC2CC(C)(N)C(O)C(C)O2)Oc2ccc(cc2Cl)C1O (stereo not drawn) [Vanc-52] | 201 | 50 (≈ 82.5 µg/mL) | 2 | 0.39 (≈ 0.643 µg/mL) | 25 (≈ 41.2 µg/mL) | 8 | 104 ± 13 | 25 (≈ 41.2 µg/mL) | 16 | 0.78 (≈ 1.29 µg/mL) | 8 | > 250 | 50 (≈ 82.5 µg/mL) | 8 | 0.78 (≈ 1.29 µg/mL) | 2 | 1 | 0.78 (≈ 1.29 µg/mL) | 1 | 0.78 (≈ 1.29 µg/mL) | MIC-fold improvement vs. vancomycin (E. faecalis VRE 37): 8; IC50 [4]: ≥ 250 µM; MIC [5]: 0.39 µM (≈ 0.643 µg/mL); MIC-fold improvement vs. vancomycin [5]: 2; MIC (S. aureus VRSA): 1.56 µM (≈ 2.57 µg/mL); MIC-fold improvement vs. vancomycin (S. aureus VRSA): 64; MIC-fold improvement vs. vancomycin (MRSA KS1): 2; MIC (MRSA KS1): 0.39 µM (≈ 0.643 µg/mL)
CN[C@H](CC(C)C)C(=O)N[C@H]1C(=O)N[C@@H](CC(N)=O)C(=O)N[C@H]2C(=O)N[C@H]3C(=O)N[C@H](C(=O)N[C@H](C(=O)NCCNC(=O)/C=C/c4ccc(C)cc4)c4cc(O)cc(O)c4-c4cc3ccc4O)[C@H](O)c3ccc(c(Cl)c3)Oc3cc2cc(c3O[C@@H]2O[C@H](CO)[C@@H](O)[C@H](O)[C@H]2O[C@H]2C[C@](C)(N)[C@H](O)[C@H](C)O2)Oc2ccc(cc2Cl)[C@H]1O [Vanc-53] | 168 | 25 (≈ 40.9 µg/mL) | 2 | 0.39 (≈ 0.638 µg/mL) | 12.5 (≈ 20.4 µg/mL) | 16 | 176 ± 103 | 12.5 (≈ 20.4 µg/mL) | 32 | 0.78 (≈ 1.28 µg/mL) | 8 | 152 ± 43 | 25 (≈ 40.9 µg/mL) | 16 | 0.78 (≈ 1.28 µg/mL) | 2 | 2 | 0.39 (≈ 0.638 µg/mL) | 2 | 0.39 (≈ 0.638 µg/mL) | MIC-fold improvement vs. vancomycin (E. faecalis VRE 37): 16; IC50 [4]: 176 ± 18 µM; MIC [5]: 0.39 µM (≈ 0.638 µg/mL); MIC-fold improvement vs. vancomycin [5]: 2; MIC (S. aureus VRSA): 0.39 µM (≈ 0.638 µg/mL); MIC-fold improvement vs. vancomycin (S. aureus VRSA): 256; MIC-fold improvement vs. vancomycin (MRSA KS1): 2; MIC (MRSA KS1): 0.39 µM (≈ 0.638 µg/mL)
